Data taken from patent US10750743B2, “Pyridazinone herbicides” (E.I. DU PONT DE NEMOURS AND COMPANY, priority 2015, dated 2020).

What was measured:
Assay type in all cases: in vivo
[1] = system: foxtail, giant (giant foxtail, Setaria faberii); test: Test A postemergence application, visual injury rating; settings: 0 to 100 scale, 0 no effect, 100 complete control
Outline: (§1)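 Compounds in a surfactant-containing solvent were applied as a directed soil spray preemergence, or postemergence to plants 2-10 cm tall at the one- to two-leaf stage, in loam-sand blend. After about 10 d in the greenhouse, injury was rated visually against untreated controls on a 0-100 scale (100 = complete control).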

[2] = system: blackgrass (Alopecurus myosuroides); test: as above; settings: 0 to 100 scale, 0 no effect, 100 complete control
Outline: as §1

[3] = system: corn (Zea mays); test: as above; settings: 0 to 100 scale, 0 no effect, 100 complete control
Outline: as §1

[4] = system: barnyardgrass (Echinochloa crus-galli); test: as above; settings: 0 to 100 scale, 0 no effect, 100 complete control
Outline: as §1

[5] = system: kochia (Kochia scoparia); test: as above; settings: 0 to 100 scale, 0 no effect, 100 complete control
Outline: as §1

[6] = system: wheat (Triticum aestivum); test: as above; settings: 0 to 100 scale, 0 no effect, 100 complete control
Outline: as §1

[7] = system: ryegrass, It. (Italian ryegrass, Lolium multiflorum); test: as above; settings: 0 to 100 scale, 0 no effect, 100 complete control
Outline: as §1

[8] = system: galium (catchweed bedstraw, Galium aparine); test: as above; settings: 0 to 100 scale, 0 no effect, 100 complete control
Outline: as §1

[9] = system: ragweed (common ragweed, Ambrosia elatior); test: as above; settings: 0 to 100 scale, 0 no effect, 100 complete control
Outline: as §1

[10] = system: pigweed (Amaranthus retroflexus); test: as above; settings: 0 to 100 scale, 0 no effect, 100 complete control
Outline: as §1

[11] = system: foxtail, giant (giant foxtail, Setaria faberii); test: Test A preemergence, directed soil spray, visual injury rating; settings: 0 is no effect, 100 is complete control
Outline: as §1

[12] = system: barnyardgrass (Echinochloa crus-galli); test: as above; settings: 0 is no effect, 100 is complete control
Outline: as §1

[13] = system: kochia (Kochia scoparia); test: as above; settings: 0 is no effect, 100 is complete control
Outline: as §1

[14] = system: ryegrass, It. (Italian ryegrass, Lolium multiflorum); test: as above; settings: 0 is no effect, 100 is complete control
Outline: as §1

[15] = system: ragweed (common ragweed, Ambrosia elatior); test: as above; settings: 0 is no effect, 100 is complete control
Outline: as §1

[16] = system: pigweed (Amaranthus retroflexus); test: as above; settings: 0 is no effect, 100 is complete control
Outline: as §1

[17] = system: rice (Oryza sativa); test: Test B flooded paddy test, visual rating; settings: Flood, 250 g ai/ha, applied to paddy water, rated after 13 to 15 d
Outline: (§2)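 Plants grown to the 2-leaf stage. At treatment, pots were flooded to 3 cm above the soil, compound was applied directly to the paddy water, and that depth was held throughout. After 13 to 15 d in the greenhouse, response was rated visually against controls on a 0 (no effect) to 100 (complete control) scale.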

[18] = system: ducksalad (Heteranthera limosa); test: Test B flooded paddy test, visual rating; settings: Flood, 250 g ai/ha, applied to paddy water, rated after 13 to 15 d
Outline: as §2

[19] = system: barnyardgrass (Echinochloa crus-galli); test: Test B flooded paddy test, visual rating; settings: Flood, 250 g ai/ha, applied to paddy water, rated after 13 to 15 d
Outline: as §2

[20] = system: sedge, umbrella (small-flower umbrella sedge, Cyperus difformis); test: Test B flooded paddy test, visual rating; settings: Flood, 250 g ai/ha, applied to paddy water, rated after 13 to 15 d
Outline: as §2

Compound | Foxtail, Giant plant response rating ([1]; 31 g ai/ha) | Foxtail, Giant plant response rating ([1]; 125 g ai/ha) | Blackgrass plant response rating ([2]; 31 g ai/ha) | Blackgrass plant response rating ([2]; 125 g ai/ha) | Corn plant response rating ([3]; 31 g ai/ha) | Corn plant response rating ([3]; 125 g ai/ha) | Barnyardgrass plant response rating ([4]; 31 g ai/ha) | Barnyardgrass plant response rating ([4]; 125 g ai/ha) | Kochia plant response rating ([5]; 31 g ai/ha) | Kochia plant response rating ([5]; 125 g ai/ha) | Wheat plant response rating ([6]; 31 g ai/ha) | Wheat plant response rating ([6]; 125 g ai/ha) | Ryegrass, It. plant response rating ([7]; 31 g ai/ha) | Ryegrass, It. plant response rating ([7]; 125 g ai/ha) | Galium plant response rating ([8]; 31 g ai/ha) | Galium plant response rating ([8]; 125 g ai/ha) | Ragweed plant response rating ([9]; 31 g ai/ha) | Ragweed plant response rating ([9]; 125 g ai/ha) | Pigweed plant response rating ([10]; 31 g ai/ha) | Pigweed plant response rating ([10]; 125 g ai/ha) | other results
Cc1cc2c(-c3c(O)c(C)nn(C)c3=O)ccc(Cl)c2o1 [Compound 45] | 0 | 0 | 0 | 0 | 0 | 0 | 0 | 0 | 0 | 0 | 0 | 0 | 20 | 60 | 20 | 70 | 0 | 0 | 0 | 10 | Plant response rating (0 to 100 scale), Foxtail, Giant ([11]; 31 g ai/ha): 0; Plant response rating (0 to 100 scale), Foxtail, Giant ([11]; 125 g ai/ha): 0; Plant response rating (0 to 100 scale), Barnyardgrass ([12]; 31 g ai/ha): 0; Plant response rating (0 to 100 scale), Barnyardgrass ([12]; 125 g ai/ha): 0; Plant response rating (0 to 100 scale), Kochia ([13]; 31 g ai/ha): 0; Plant response rating (0 to 100 scale), Kochia ([13]; 125 g ai/ha): 0; Plant response rating (0 to 100 scale), Ryegrass, It. ([14]; 31 g ai/ha): 0; Plant response rating (0 to 100 scale), Ryegrass, It. ([14]; 125 g ai/ha): 30; Plant response rating (0 to 100 scale), Ragweed ([15]; 31 g ai/ha): 0; Plant response rating (0 to 100 scale), Ragweed ([15]; 125 g ai/ha): 10; Plant response rating (0 to 100 scale), Pigweed ([16]; 31 g ai/ha): 0; Plant response rating (0 to 100 scale), Pigweed ([16]; 125 g ai/ha): 50; Rice plant response rating (0 to 100 scale, 0 is no effect, 100 is complete control) [17]: 0; Ducksalad plant response rating (0 to 100 scale, 0 is no effect, 100 is complete control) [18]: 30; Barnyardgrass plant response rating (0 to 100 scale, 0 is no effect, 100 is complete control) [19]: 0; Sedge, Umbrella plant response rating (0 to 100 scale, 0 is no effect, 100 is complete control) [20]: 50
Cc1ccc2sc(Cl)cc2c1-c1c(O)c(C)nn(C)c1=O [Compound 46] | 50 | 90 | 40 | 70 | 0 | 20 | 10 | 30 | 60 | 90 | 0 | 20 | 90 | 100 | 90 | 90 | 90 | 100 | 90 | 90 | Plant response rating (0 to 100 scale), Foxtail, Giant ([11]; 31 g ai/ha): 30; Plant response rating (0 to 100 scale), Foxtail, Giant ([11]; 125 g ai/ha): 80; Plant response rating (0 to 100 scale), Barnyardgrass ([12]; 31 g ai/ha): 0; Plant response rating (0 to 100 scale), Barnyardgrass ([12]; 125 g ai/ha): 50; Plant response rating (0 to 100 scale), Kochia ([13]; 31 g ai/ha): 50; Plant response rating (0 to 100 scale), Kochia ([13]; 125 g ai/ha): 80; Plant response rating (0 to 100 scale), Ryegrass, It. ([14]; 31 g ai/ha): 90; Plant response rating (0 to 100 scale), Ryegrass, It. ([14]; 125 g ai/ha): 100; Plant response rating (0 to 100 scale), Ragweed ([15]; 31 g ai/ha): 80; Plant response rating (0 to 100 scale), Ragweed ([15]; 125 g ai/ha): 80; Plant response rating (0 to 100 scale), Pigweed ([16]; 31 g ai/ha): 100; Plant response rating (0 to 100 scale), Pigweed ([16]; 125 g ai/ha): 100; Rice plant response rating (0 to 100 scale, 0 is no effect, 100 is complete control) [17]: 0; Ducksalad plant response rating (0 to 100 scale, 0 is no effect, 100 is complete control) [18]: 0; Barnyardgrass plant response rating (0 to 100 scale, 0 is no effect, 100 is complete control) [19]: 0; Sedge, Umbrella plant response rating (0 to 100 scale, 0 is no effect, 100 is complete control) [20]: 70
COC(=O)Oc1c(C)nn(C)c(=O)c1-c1ccc(Cl)c2ccsc12 [Compound 50] | 0 | 0 | 0 | 10 | 0 | 0 | 0 | 10 | 40 | 90 | 0 | 0 | 60 | 90 | 100 | 100 | 10 | 70 | 60 | 70 | Plant response rating (0 to 100 scale), Foxtail, Giant ([11]; 31 g ai/ha): 0; Plant response rating (0 to 100 scale), Foxtail, Giant ([11]; 125 g ai/ha): 10; Plant response rating (0 to 100 scale), Barnyardgrass ([12]; 31 g ai/ha): 0; Plant response rating (0 to 100 scale), Barnyardgrass ([12]; 125 g ai/ha): 10; Plant response rating (0 to 100 scale), Kochia ([13]; 31 g ai/ha): 0; Plant response rating (0 to 100 scale), Kochia ([13]; 125 g ai/ha): 20; Plant response rating (0 to 100 scale), Ryegrass, It. ([14]; 31 g ai/ha): 60; Plant response rating (0 to 100 scale), Ryegrass, It. ([14]; 125 g ai/ha): 80; Plant response rating (0 to 100 scale), Ragweed ([15]; 31 g ai/ha): 0; Plant response rating (0 to 100 scale), Ragweed ([15]; 125 g ai/ha): 20; Plant response rating (0 to 100 scale), Pigweed ([16]; 31 g ai/ha): 0; Plant response rating (0 to 100 scale), Pigweed ([16]; 125 g ai/ha): 100; Rice plant response rating (0 to 100 scale, 0 is no effect, 100 is complete control) [17]: 0; Ducksalad plant response rating (0 to 100 scale, 0 is no effect, 100 is complete control) [18]: 0; Barnyardgrass plant response rating (0 to 100 scale, 0 is no effect, 100 is complete control) [19]: 0; Sedge, Umbrella plant response rating (0 to 100 scale, 0 is no effect, 100 is complete control) [20]: 0
